Read-outs that look alike come from different tables or passages of the source.
Columns and labels:
[1] = tested on: NCI-N87 Her2+ gastric cancer; assay: NCI-N87 (Her2+) gastric cancer xenograft in athymic nude mice; assay type: in vivo
Protocol: The efficacy of Compound 1 was compared to that of SNX-5422 (Serenex, Pfizer, Inc.) on the growth of NCI-N87 (Her2+) human gastric cancer cells as a xenograft in athymic nude mice model. Animals were dosed with either 200 mg/kg of Compound 1 on days 1 through 21 or 40 mg/kg of SNX-5422 thrice weekly for three weeks. Tumor volumes and body weights were determined from Days 1 to 39.
Five million NCI-N87 cells were implanted subcutaneously in the right flank of female nude mice (Hsd:athymic nude-Foxn1^nu). When the median tumor volume was approximately 123 mm^3, mice were randomized into three cohorts of ten animals. One cohort was dosed orally with vehicle, one cohort was dosed orally with Compound 1 (200 mg/kg) formulated in vehicle, and one cohort was dosed orally with SNX-5422 (40 mg/kg) formulated in dimethylacetamide/polyethylene glycol 300. Vehicle and Compound 1 were administered on days 1-21 and SNX-5422 was administered thrice weekly on Days 1, 3, 5, 8, 10, 12, 15, 17 and 19. The mice were observed daily for mortality and signs of toxicity.
Xenografted mice bearing N-87 tumors (median volume ˜125 mm^3) were dosed orally with Compound 1 for three weeks with the dosing schedules indicated in FIG. 4.
Additionally, xenografted mice bearing N-87 tumors (median volume ˜115 mm^3) were dosed orally with Compound 1 for twenty-one days at 200 mg/kg, once daily or 100 mg/kg, twice-daily as indicated in FIG. 5. Tumor growth inhibition (TGI) was monitored up to Day 39.

[2] = tested on: MV-4-11 acute myeloid leukemia; assay: MV-4-11 acute myeloid leukemia xenograft; assay type: in vivo, mice; conditions: 200 mg/kg oral, daily for 21 days
OPM-2 multiple myeloma = OPM-2 multiple myeloma xenograft; assay type: in vivo, mice; conditions: 200 mg/kg oral, daily for 21 days, p = 0.34
[3] = Phase I clinical trial, human plasma pharmacokinetics of oral Compound 1; assay type: in vivo; conditions: for AUC(0-inf) / Vd/F / AUC(0-t) / Cmax / Tmax / half-life: human, plasma, po; for Vd/F: read-out: Vz/F; for AUC(0-t): read-out: AUC(0-24)
Protocol: A human clinical study was initiated at a starting dose of 50 mg/m^2. Subjects had recurrent cancer refractory to available systemic therapy. Compound 1 was administered daily by mouth in tablet form for 21 consecutive days in a 28 day cycle to each enrolled subject. […] Plasma was collected pre-dose only for cycle 1 day 8. […] Patients were men and women with metastatic cancer, ranged in age from 45 to 85 years, and received doses ranging from 50 mg/m^2 to 340 mg/m^2, with a total daily dose of 100-740 mg (Tables 2A and 2B).

[4] = both sexes, 50 mg/m^2, Day 01, Cohort 1, 50 mg/m^2 (100 mg), oral daily
[5] = both sexes, 100 mg/m^2, Day 01, Cohort 2, 100 mg/m^2 (160 mg), oral daily
[6] = both sexes, 165 mg/m^2, Day 01, Cohort 3, 165 mg/m^2 (300 mg), oral daily
[7] = both sexes, 240 mg, Day 01, Cohort 6 (BID), N = 4, 240 mg, oral twice daily
[8] = both sexes, 240 mg, Day 21, Cohort 6 (BID), N = 2, 240 mg, oral twice daily
[9] = both sexes, 245 mg/m^2, Day 01, Cohort 4, 245 mg/m^2 (340-540 mg), oral daily
[10] = both sexes, 340 mg/m^2, Day 01, Cohort 5 (BID), N = 6, 340 mg/m^2 (270-370 mg), oral twice daily
[11] = both sexes, Day 21, Cohort 4, N = 6, 176-245 mg/m^2 (340-540 mg), oral daily
[12] = 50 mg/m^2, Day 01, Cohort 1, Subject 101, 50 mg/m^2 (100 mg), oral daily
[13] = 50 mg/m^2, Day 19, Cohort 1, 50 mg/m^2 (100 mg), oral daily

SMILES: C[C@H](O)C(=O)N1CCC(CCn2c(Sc3cc4c(cc3Br)OCO4)nc3c(N)ncnc32)CC1 [Compound 1, (2S)-1-[4-(2-{6-amino-8-[(6-bromo-1,3-benzodioxol-5-yl)thio]-9H-purin-9-yl}ethyl)piperidin-1-yl]-1-oxopropan-2-ol]
- tumor regression ([1]; 200 mg/kg oral, 5-days-on/2-days-off, after 3 cycles): 44% regression after 3 cycles
- tumor regression ([1]; 200 mg/kg oral, QOD (once every-other-day) for three weeks, Day 21): 7%
- tumor regression ([1]; 200 mg/kg oral, daily for 21 days, Day 21 (dosing schedule study)): 40%
- decrease in median tumor volume ([1]; 200 mg/kg oral, days 1-21, by day 21): 40%
- TGI (tumor growth inhibition) ([1]; 200 mg/kg oral, twice weekly for three weeks, Day 21): 100%
- TGI (tumor growth inhibition) ([1]; 200 mg/kg oral, weekly (Days 1, 8, 15), Day 21, p = 0.1): 54% TGI (p = 0.1) Day 21
- TGI (tumor growth inhibition) ([1]; 400 mg/kg oral, twice weekly for three weeks, Day 21): 95%
- tumor growth inhibition compared with SNX-5422 ([1]; Compound 1 200 mg/kg daily vs SNX-5422 40 mg/kg thrice weekly): as effective as SNX-5422
- tumor regression [2]: 50% regression
- TGI (tumor growth inhibition) (OPM-2 multiple myeloma): 71% TGI (p = 0.34)
- CL/F ([3]; Day 01, Cohort 1, 50 mg/m^2 (100 mg), oral daily): 4098 mL/h
- CL/F ([3]; Day 01, Cohort 2, 100 mg/m^2 (160 mg), oral daily): 4343 mL/h
- CL/F ([3]; Day 01, Cohort 3, 165 mg/m^2 (300 mg), oral daily): 2405 mL/h
- CL/F ([3]; Day 01, Cohort 4, 245 mg/m^2 (340-540 mg), oral daily): 3118 mL/h
- CL/F ([3]; Day 01, Cohort 5 (BID), 340 mg/m^2 (270-370 mg), oral twice daily): 2517 mL/h
- CL/F ([3]; Day 01, Cohort 5, 340 mg/m^2 (480-620 mg), oral daily): 2500 mL/h
- CL/F ([3]; Day 01, Cohort 6 (BID), 240 mg, oral twice daily): 5956 mL/h
- CL/F ([3]; Day 19, Cohort 1, 50 mg/m^2 (100 mg), oral daily): 4547 mL/h
- CL/F ([3]; Day 21, Cohort 2, 100 mg/m^2 (160 mg), oral daily): 3213 mL/h
- CL/F ([3]; Day 21, Cohort 3, 165 mg/m^2 (300 mg), oral daily): 1502 mL/h
- CL/F ([3]; Day 21, Cohort 4, 176-245 mg/m^2 (340-540 mg), oral daily): 3509 mL/h
- CL/F ([3]; Day 21, Cohort 5 (BID), 340 mg/m^2 (330 mg), oral twice daily): 4746 mL/h
- CL/F ([3]; Day 21, Cohort 5, 340 mg/m^2 (620 mg), oral daily): 1323 mL/h
- CL/F ([3]; Day 21, Cohort 6 (BID), 240 mg, oral twice daily): 4003 mL/h
- AUC(0-inf) [3, 4]: 24400 ng·h/mL
- Vd/F [3, 4]: 50.5 L
- AUC(0-inf) [3, 5]: 36800 ng·h/mL
- AUC(0-t) [3, 5]: 29900 ng·h/mL
- Vd/F [3, 5]: 61.6 L
- AUC(0-inf) [3, 6]: 125000 ng·h/mL
- AUC(0-t) [3, 6]: 91800 ng·h/mL
- Vd/F [3, 6]: 40 L
- Cmax [3, 7]: 6250 ng/mL
- Tmax [3, 7]: 1 h
- half-life [3, 7]: 5.5 h
- Cmax [3, 8]: 9200 ng/mL
- Tmax [3, 8]: 1.5 h
- half-life [3, 8]: 6.2 h
- AUC(0-inf) [3, 9]: 143000 ng·h/mL
- AUC(0-t) [3, 9]: 99100 ng·h/mL
- Vd/F [3, 9]: 61.4 L
- Cmax [3, 10]: 8120 ng/mL
- Tmax [3, 10]: 2 h
- half-life [3, 10]: 7.5 h
- Cmax [3, 11]: 9270 ng/mL
- Tmax [3, 11]: 2 h
- half-life [3, 11]: 13.2 h
- oral bioavailability ([3]; human cancer patients): orally bioavailable
- increase in drug levels with increasing dose ([3]; human patients, oral tablets): more-than-proportional increase
- AUC(0-t) ([3]; 50 mg/m^2, Day 01, Cohort 1, 50 mg/m^2 (100 mg), oral daily): 20600 ng·h/mL
- Cmax [3, 12]: 1900 ng/mL
- Tmax [3, 12]: 2 h
- half-life [3, 12]: 8.5 h
- AUC(0-inf) [3, 13]: 30800 ng·h/mL
- AUC(0-t) [3, 13]: 22000 ng·h/mL

Source: US20120277257A1, “Methods of Treating Diseases, Pharmaceutical Compositions, and Pharmaceutical Dosage Forms” (MYREXIS, INC., priority 2009, published 2012)
